Values after ≈ are worked out from the molar mass of the structure shown.
Experiments:
Type in all cases: physicochemical
[1] = Compressibility, maximum density at constant pressure of 0.2 MPa (TA-XT2 Texture analyser); conditions: 0.2 MPa per step, 10 steps
Description: As used herein, and unless indicated otherwise, the term “compressibility” is expressed as maximum density at constant pressure of 0.2 MPa.
Compression profiles were obtained using a die and a flat-faced punch fitted on a TA-XT2 Texture analyser (Stable Micro Systems Ltd., Godalming, UK).
200 mg of micronized crystalline form E of Sofosbuvir obtained according to example 8 is compressed in a steel mould (with the rate of displacement 0.03 mm/s). Cyclic procedure (similar to tapping) was performed: compressing, then retracting, relaxation for 15 s and then repeated compressive steps (altogether 10 steps). Each step exerts 0.2 MPa pressure on to the sample. Sample density is calculated by dividing the weight by the sample volume for each cycle. Maximum density is reached within 10 steps. The maximal compressive displacement was 0.5 mm. The resulting density was: 0.48 g/ml

[2] = DVS water vapor sorption (hygroscopicity); conditions: for critical relative humidity in the sorption curve at which the rate of water uptake changes (inflection point): DVS sorption curve; for Change in Mass (%): 25° C.
Description: The improved hygroscopic properties discussed herein above may be expressed by the dynamic water uptake monitored by the DVS instrument. The profile of the dynamic curve obtained may provide insight on the tendency of the substance to deliquescence. […] This behavior indicates a long-term possibility of the stored powder to stick and form lumps.
DVS measurements were performed SMS DVS instrument
Humidity range: 0%-90%-0% cycle. […]
minimum step duration: 60 min maximum step duration: 720 min

[3] = Solubility at 37° C. by UHPLC/UV; conditions: for solubility at 15 min / solubility at 1 h: 37 °C, thermodynamic from solid
Description: (§1) Sofosbuvir form 6 prepared according to example 18 above and Sofosbuvir form 7 prepared according to example 16 above was used.
The solubility was determined as follows:
100 mg test substance was weighed into a glass vial, followed by addition of 4 mL solvent (water, 0.01 M HCl, 20 mM sodium acetate/acetic acid [pH 4.5], 50 mM KH2PO4 [pH 6.8]). A stirring bar was added, the vial was fixed in a block heater at 37° C. and the suspension was stirred with 250 rpm. After 15 min and 1 h, samples were withdrawn and filtered through a 0.2 μm PTFE filter. 100 μL of the clear filtrate were diluted with 900 μL acetonitrile/water mixture (1:1) and 1 μL thereof was analyzed by UHPLC/UV:
Instrument: Agilent 1290 Infinity
Column: Phenomenex Kinetex XB—C18, 1.7 μm, 50×3 mm
Solvent A: water+0.2% Formic acid+0.1% HFBA […] heptafluorobutyric acid)

[4] = Particle size distribution by laser diffractometry (Mastersizer 2000, wet measurement); conditions: silicone oil
Description: If a wet measurement is used the particles to be measured are dispersed in a dispersant, preferably a dispersant having a refractive index (RI) of 1.403, and the measurement is carried out at 2000 rpm and ultrasound for 120 s prior to measurement. Preferably, unless otherwise indicated the particle size distribution is determined using a wet measurement using a Mastersizer 2000 from Malvern Instruments and Malvern Hydro 2000S wet sample dispersion unit and silicone oil as dispersant. Unless otherwise indicated, the following settings are preferably used:
as §1
The particle size distribution was determined using a wet measurement using a Mastersizer 2000 from Malvern Instruments and Malvern Hydro 2000S wet sample dispersion unit and silicone oil as dispersant.

[5] = Propensity to become electrostatically charged
[6] = Dissolution, USP apparatus II, paddle method; conditions: pH 6.8, after 5 minutes
Description: Sofosbuvir form 6 prepared according to example 18 above and Sofosbuvir form 7 prepared according to example 16 above was used. The dissolution of Sofosbuvir Form 7 and Form 6 was measured (in triplicate) in 50 mM phosphate buffer at 37° C. (pH 6.8, 900 mL), using USP apparatus II, paddle method. Every 5 minutes, a probe was taken and measured by UV/VIS at 260 nm and path length 0.1 cm; UV/VIS was measured on an Agilent model 8453 with Chem Station Dissolution Software. 400 mg of Sofosbuvir Form 7 or Form 6 was used for the test, and the percentages are given in relation to 400 mg of the API. The results are represented graphically in FIG. 13.

[7] = Storage stability of the solid form

For `CC(C)OC(=O)[C@H](C)NP(=O)(OC[C@H]1O[C@@H](n2ccc(=O)[nH]c2=O)[C@](C)(F)[C@@H]1O)Oc1ccccc1` (stereo partly drawn) [(2S)-isopropyl 2-(((((2R,3R,4R,5R)-5-(2,4-dioxo-3,4-dihydropyrimidin-1(2H)-yl)-4-fluoro-3-hydroxy-4-methyltetrahydrofuran-2-yl)methoxy)(phenoxy)phosphoryl)amino)propanoate], the “resulting density (compressibility)” value [1] was 0.48 g/mL.
For `CC(C)OC(=O)[C@H](C)NP(=O)(OC[C@H]1O[C@@H](n2ccc(=O)[nH]c2=O)[C@](C)(F)[C@@H]1O)Oc1ccccc1` (stereo partly drawn) [Form 1, (2S)-isopropyl 2-(((((2R,3R,4R,5R)-5-(2,4-dioxo-3,4-dihydropyrimidin-1(2H)-yl)-4-fluoro-3-hydroxy-4-methyltetrahydrofuran-2-yl)methoxy)(phenoxy)phosphoryl)amino)propanoate], the “critical relative humidity in the sorption curve at which the rate of water uptake changes (inflection point)” value [2] was “about 80 % RH”, the water uptake ([2]; DVS, above 80% RH) was “about 5%” and the “Change in Mass (%)” value ([2]; DVS, relative humidity 70%) was 0.13%. The “Change in Mass (%)” value ([2]; DVS, relative humidity 90%) was 5.57%.
Work on `CC(C)OC(=O)[C@H](C)NP(=O)(OC[C@H]1O[C@@H](n2ccc(=O)[nH]c2=O)[C@](C)(F)[C@@H]1O)Oc1ccccc1` (stereo partly drawn) [Form 6, (2S)-isopropyl 2-(((((2R,3R,4R,5R)-5-(2,4-dioxo-3,4-dihydropyrimidin-1(2H)-yl)-4-fluoro-3-hydroxy-4-methyltetrahydrofuran-2-yl)methoxy)(phenoxy)phosphoryl)amino)propanoate] yielded a Solubility ([3]; 0.01 M HCl, 15 min) of 2500 µg/mL (≈ 4.72 mM), a Solubility ([3]; 0.01 M HCl, 1 h) of 2400 µg/mL (≈ 4.53 mM) and a Solubility ([3]; 20 mM NaOAc/HOAc (pH 4.5), 15 min) of 2400 µg/mL (≈ 4.53 mM). For the same compound, the Solubility ([3]; 20 mM NaOAc/HOAc (pH 4.5), 1 h) was 2500 µg/mL (≈ 4.72 mM), the Solubility ([3]; 50 mM KH2PO4 (pH 6.8), 15 min) was 2300 µg/mL (≈ 4.34 mM) and the Solubility ([3]; 50 mM KH2PO4 (pH 6.8), 1 h) was 2300 µg/mL (≈ 4.34 mM). For the same compound, the Solubility ([3]; water, 15 min) was 2400 µg/mL (≈ 4.53 mM), the Solubility ([3]; water, 1 h) was 2300 µg/mL (≈ 4.34 mM) and the “critical relative humidity in the sorption curve at which the rate of water uptake changes (inflection point)” value [2] was “about 70 % RH”. For the same compound, the water uptake ([2]; DVS, above 70% RH) was “about 1%”, the “Change in Mass (%)” value ([2]; DVS, relative humidity 70%) was 0.14% and the “Change in Mass (%)” value ([2]; DVS, relative humidity 90%) was 1.08%. The “Particle size D10” value [4] was 2.0 μm, the “Particle size D50” value [4] was 8.2 μm and the “Particle size D90” value [4] was 22.9 μm. For the same compound, the “propensity to become electrostatically charged” value [5] was “high propensity to become electrostatically charged”.
In the case of `CC(C)OC(=O)[C@H](C)NP(=O)(OC[C@H]1O[C@@H](n2ccc(=O)[nH]c2=O)[C@](C)(F)[C@@H]1O)Oc1ccccc1` (stereo partly drawn) [Form 7, (2S)-isopropyl 2-(((((2R,3R,4R,5R)-5-(2,4-dioxo-3,4-dihydropyrimidin-1(2H)-yl)-4-fluoro-3-hydroxy-4-methyltetrahydrofuran-2-yl)methoxy)(phenoxy)phosphoryl)amino)propanoate], the solubility at 15 min ([3]; 0.01 M HCl, pH 2, simulated gastric fluid, 15 min) is reported as 3200 µg/mL (≈ 6.04 mM), the solubility at 1 h ([3]; 0.01 M HCl, pH 2, simulated gastric fluid, 1 h) is reported as 3200 µg/mL (≈ 6.04 mM) and the solubility at 15 min ([3]; 20 mM sodium acetate/acetic acid buffer, pH 4.5, aqueous buffer, 20 mM NaOAc/HOAc (pH 4.5), 15 min) is reported as 3100 µg/mL (≈ 5.86 mM). It also gave a solubility at 1 h ([3]; 20 mM sodium acetate/acetic acid buffer, pH 4.5, aqueous buffer, 20 mM NaOAc/HOAc (pH 4.5), 1 h) of 3100 µg/mL (≈ 5.86 mM), a solubility at 15 min ([3]; 50 mM KH2PO4 buffer, pH 6.8, aqueous buffer, 50 mM KH2PO4 (pH 6.8), 15 min) of 3200 µg/mL (≈ 6.04 mM) and a solubility at 1 h ([3]; 50 mM KH2PO4 buffer, pH 6.8, aqueous buffer, 50 mM KH2PO4 (pH 6.8), 1 h) of 3000 µg/mL (≈ 5.67 mM). The “solubility compared with the solubility of Form 6” value ([3]; physiologically relevant solvents, after 15 min and after 1 hour) was “approximately one third higher”, the solubility at 15 min ([3]; water, 15 min) was 3100 µg/mL (≈ 5.86 mM) and the solubility at 1 h ([3]; water, 1 h) was 3100 µg/mL (≈ 5.86 mM). For the same compound, the “solubility (percent dissolved)” value [6] was no less than 65%.
In the case of `CC(C)OC(=O)[C@H](C)NP(=O)(OC[C@H]1O[C@@H](n2ccc(=O)[nH]c2=O)[C@](C)(F)[C@@H]1O)Oc1ccccc1` (stereo partly drawn) [Form E, (2S)-isopropyl 2-(((((2R,3R,4R,5R)-5-(2,4-dioxo-3,4-dihydropyrimidin-1(2H)-yl)-4-fluoro-3-hydroxy-4-methyltetrahydrofuran-2-yl)methoxy)(phenoxy)phosphoryl)amino)propanoate], the “stable for” value ([7]; at 25 degrees) is reported as “at least 3 months”, the “stable for” value ([7]; at 40 degrees) is reported as “at least 3 months” and the “hysteresis between the desorption and the absorption isotherm” value ([2]; DVS) is reported as “doesn't exhibit any hysteresis”. The “critical relative humidity in the sorption curve at which the rate of water uptake changes (inflection point)” value [2] was “does not show this inflection point”, the “Change in Mass (%)” value ([2]; DVS, relative humidity 70%) was 0.07% and the “Change in Mass (%)” value ([2]; DVS, relative humidity 90%) was 0.12%.
